According to the supplement of paper PMC7840683:
± gives the standard deviation of the averaged measurements.

Test system: HepaRG
Experiment: LDH release cytotoxicity, % of total lysis control; higher = more cytotoxic
Conditions: 48 h
In short: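 Eight-point half-log series of test chemicals, the highest at 100 µM, were given in duplicate for 48 h to single-lot HepaRG cells on collagen I-coated 96-well plates in serum-free induction medium with 0.5% DMSO. A Tecan Safire read resorufin fluorescence from CytoTox-ONE as a measure of LDH in 50 µL spent medium, with 0.1% Triton X in total lysis wells. Percent cytotoxicity was normalized to on-plate vehicle and total lysis controls and averaged over the duplicates.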

| SMILES | LDH release cytotoxicity (0.03162 µM) [%] | LDH release cytotoxicity (0.1 µM) [%] | LDH release cytotoxicity (0.3162278 µM) [%] | LDH release cytotoxicity (1 µM) [%] | LDH release cytotoxicity (3.16228 µM) [%] | LDH release cytotoxicity (10 µM) [%] | LDH release cytotoxicity (31.6228 µM) [%] | LDH release cytotoxicity (100 µM) [%] | further results |
| --- | --- | --- | --- | --- | --- | --- | --- | --- | --- |
| CC(=O)CC(c1ccccc1)C1C(=O)Oc2ccccc2C1=O (centres undefined) [Warfarin] | -1.66 ± 0.38 | -1.26 ± 0.31 | -0.808 ± 0.67 | -0.262 ± 1.4 | -0.866 ± 0.073 | -0.731 ± 0.26 | 0.385 ± 0.24 | 2.56 ± 0.55 | – |
| Cc1occc1C(=O)Nc1ccc(C(=O)N2CCC(F)(F)/C(=C\C(=O)N3CCC(N4CCCCC4)CC3)c3ccccc32)cc1 [YM218] | – | – | – | – | – | – | – | – | LDH release cytotoxicity (0.01976 µM): -1.36 ± 0.064%; LDH release cytotoxicity (0.0625 µM): -1.93 ± 1.9%; LDH release cytotoxicity (0.197642 µM): -3.13 ± 1.1%; LDH release cytotoxicity (0.625 µM): -2.977 ± 0.0083%; LDH release cytotoxicity (1.976424 µM): -3.81 ± 0.63%; LDH release cytotoxicity (6.25 µM): -2.99 ± 0.55%; LDH release cytotoxicity (19.7642 µM): -1.84 ± 0.55%; LDH release cytotoxicity (62.5 µM): 19.8 ± 2.1% |
| c1ccc(C(OC2CCCN(CCc3ccc4c(c3)OCO4)C2)c2ccccc2)cc1 (centres undefined) [Zamifenacin] | -1.023 ± 0.0016 | -1.51 ± 0.059 | -1.31 ± 0.77 | -1.54 ± 0.46 | -1.68 ± 1.4 | -1.11 ± 0.43 | 2 ± 0.19 | 51.7 ± 1.1 | – |
| O=C(O)Cn1c(=O)n(Cc2ccc(Br)cc2F)c(=O)c2ccc(Cl)cc21 [Zenarestat] | -0.858 ± 0.89 | -0.293 ± 1.2 | -0.841 ± 0.43 | -0.408 ± 0.56 | -0.109 ± 1.5 | 0.443 ± 0.12 | -0.513 ± 0.13 | 0.792 ± 0.4 | – |
| CN(C)C(=S)[S-].CN(C)C(=S)[S-].[Zn+2] [Ziram] | -1.6 ± 0.3 | -1.5 ± 0.095 | -1.92 ± 1.4 | -1.52 ± 0.12 | -1.1 ± 0.12 | -0.764 ± 0.98 | 37.6 ± 4 | 46.8 ± 1.6 | – |
| CCC(C)(NC(=O)c1cc(Cl)c(C)c(Cl)c1)C(=O)CCl (centres undefined) [Zoxamide] | – | – | – | – | – | – | – | – | LDH release cytotoxicity (0.0317809 µM): -0.27 ± 0.064%; LDH release cytotoxicity (0.1005 µM): -0.966 ± 0.8%; LDH release cytotoxicity (0.317809 µM): -0.7429 ± 0.0016%; LDH release cytotoxicity (1.005 µM): -1.43 ± 0.81%; LDH release cytotoxicity (3.17809 µM): -0.947 ± 0.12%; LDH release cytotoxicity (10.05 µM): -0.343 ± 0.64%; LDH release cytotoxicity (31.7809 µM): -1.15 ± 0.96%; LDH release cytotoxicity (100.5 µM): 41.9 ± 2.7% |
| CC(C=CC1=C(C)CCCC1(C)C)=CC=CC(C)=CC(=O)O [all-trans-Retinoic acid] | -2.15 ± 0.83 | -2.16 ± 0.56 | -1.95 ± 0.22 | -2.25 ± 1.9 | -2.56 ± 0.86 | -1.87 ± 0.4 | -1.86 ± 2 | 2.13 ± 3 | – |
| OCC1OC2OC3C(CO)OC(OC4C(CO)OC(OC5C(CO)OC(OC6C(CO)OC(OC7C(CO)OC(OC1C(O)C2O)C(O)C7O)C(O)C6O)C(O)C5O)C(O)C4O)C(O)C3O (stereo not drawn) [alpha-Cyclodextrin] | – | – | – | – | – | – | – | – | LDH release cytotoxicity (0.016602 µM): -2.18 ± 0.47%; LDH release cytotoxicity (0.0525 µM): -2.3 ± 0.3%; LDH release cytotoxicity (0.16602 µM): -1.73 ± 1.5%; LDH release cytotoxicity (0.525 µM): -2.65 ± 2%; LDH release cytotoxicity (1.6602 µM): -2.1 ± 0.45%; LDH release cytotoxicity (5.25 µM): -1.71 ± 0.9%; LDH release cytotoxicity (16.601958 µM): -1.44 ± 0.78%; LDH release cytotoxicity (52.5 µM): 0.413 ± 1.5% |
| CC(=O)C(C)=CC1C(C)=CCCC1(C)C (stereo not drawn) [alpha-Isomethylionone] | -0.906 ± 0.49 | -1.92 ± 0.022 | -1.73 ± 0.24 | -1.69 ± 0.3 | -1.11 ± 0.41 | -1.8 ± 0.12 | -0.46 ± 0.73 | 0.422 ± 0.12 | – |
| ClC1C(Cl)C(Cl)C(Cl)C(Cl)C1Cl (stereo not drawn) [beta-Hexachlorocyclohexane] | -4.28 ± 0.89 | -4.78 ± 1.2 | -4.47 ± 0.78 | -4.51 ± 0.96 | -3.52 ± 0.096 | -2.88 ± 0.6 | -2.3 ± 2 | -0.552 ± 0.4 | – |
| CCC(c1ccc(O)cc1)C(CC)c1ccc(O)cc1 (stereo not drawn) [meso-Hexestrol] | -1.95 ± 0.96 | -2.35 ± 0.15 | -1.46 ± 0.23 | -1.95 ± 0.05 | -1.99 ± 0.005 | -1.59 ± 0.53 | 0.514 ± 0.37 | 75.4 ± 1.7 | – |
| Clc1ccc(C(c2ccccc2Cl)C(Cl)(Cl)Cl)cc1 (centres undefined) [o,p'-DDT] | 0.598 ± 0.81 | -1.38 ± 0.27 | -0.542 ± 0.35 | -0.286 ± 0.43 | 2.06 ± 0.81 | 10.3 ± 2.1 | 12.9 ± 0.91 | 8.46 ± 0.97 | – |
| COC1C(OC(=O)NC(=O)CCl)CCC2(CO2)C1C1(C)OC1CC=C(C)C (centres undefined) [o-(Chloroacetylcarbamoyl)fumagillol] | – | – | – | – | – | – | – | – | LDH release cytotoxicity (0.01012 µM): -1.03 ± 1.5%; LDH release cytotoxicity (0.032 µM): -2.16 ± 1.1%; LDH release cytotoxicity (0.101193 µM): -2.32 ± 0.23%; LDH release cytotoxicity (0.32 µM): -2.5 ± 0.28%; LDH release cytotoxicity (1.01193 µM): -1.78 ± 0.47%; LDH release cytotoxicity (3.2 µM): -1.64 ± 0.6%; LDH release cytotoxicity (10.1193 µM): -0.944 ± 0.11%; LDH release cytotoxicity (32 µM): 0.233 ± 0.59% |
| Cc1cc(N=Nc2ccccc2C)ccc1N [o-Aminoazotoluene] | 1.25 ± 0.25 | 0.0136 ± 0.85 | -0.529 ± 0.91 | -1.5 ± 0.26 | 0.597 ± 1.2 | -0.361 ± 0.022 | -0.392 ± 0.21 | 1.11 ± 0.27 | – |
| Cc1ccccc1O [o-Cresol] | -1.5 ± 0.25 | -1.22 ± 0.88 | -1.45 ± 0.22 | -2.213 ± 0.0064 | -1.71 ± 0.043 | -0.686 ± 0.64 | -0.0502 ± 0.045 | 12.99 ± 0.038 | – |
| Clc1ccc(C(c2ccc(Cl)cc2)C(Cl)Cl)cc1 [p,p'-DDD] | -1.25 ± 0.49 | -1.27 ± 0.24 | -2.03 ± 0.73 | -1.62 ± 0.97 | -0.977 ± 0.88 | -1.35 ± 0.072 | -1.4 ± 0.21 | 0.26 ± 1.1 | – |
| ClC(Cl)=C(c1ccc(Cl)cc1)c1ccc(Cl)cc1 [p,p'-DDE] | -0.311 ± 0.4 | -0.017 ± 0.96 | -0.636 ± 0.036 | -0.675 ± 0.2 | 0.0542 ± 0.64 | -0.0981 ± 0.32 | 0.0466 ± 1 | 0.471 ± 0.17 | – |
| Brc1ccc(Oc2ccccc2)cc1 [p-Bromodiphenyl ether] | -0.849 ± 0.61 | -1.4 ± 0.68 | -1.66 ± 0.61 | -1.42 ± 0.37 | -0.77 ± 0.066 | -0.841 ± 0.23 | 0.599 ± 0.93 | 3.7 ± 1.8 | – |
| Cc1ccc(O)cc1 [p-Cresol] | -0.87 ± 0.85 | -2.34 ± 0.61 | -1.45 ± 1.2 | -0.608 ± 0.68 | -1.02 ± 0.95 | -1.22 ± 0.042 | -0.051 ± 0.075 | 1.76 ± 0.21 | – |
| Cc1ccc(C(C)C)cc1 [p-Cymene] | – | – | – | – | – | – | – | – | LDH release cytotoxicity (0.01581 µM): -0.487 ± 2.9%; LDH release cytotoxicity (0.05 µM): -1.9 ± 1.2%; LDH release cytotoxicity (0.1581139 µM): -3.02 ± 0.62%; LDH release cytotoxicity (0.5 µM): -2.63 ± 0.3%; LDH release cytotoxicity (1.5811388 µM): -1.96 ± 0.66%; LDH release cytotoxicity (5 µM): -2.1 ± 0.077%; LDH release cytotoxicity (15.8114 µM): -1.51 ± 0.39%; LDH release cytotoxicity (50 µM): 0.041 ± 0.062% |
| CC(C)(C)OOC(=O)c1ccccc1 [tert-Butyl perbenzoate] | -1.33 ± 0.72 | -1.77 ± 0.33 | -1.063 ± 0.0015 | -2.35 ± 0.69 | -1.04 ± 1.1 | -1.63 ± 0.41 | -0.865 ± 0.23 | 0.38 ± 0.12 | – |
| CC(C)(C)c1ccccc1 [tert-Butylbenzene] | -3.19 ± 0.23 | -2.41 ± 1.1 | -1.88 ± 0.86 | -2.09 ± 0.96 | -1.34 ± 0.44 | -1.35 ± 0.2 | -0.245 ± 1.8 | 0.779 ± 2.1 | – |
| CC(C)(C)c1cc(O)ccc1O [tert-Butylhydroquinone] | -1.59 ± 0.56 | -1.78 ± 0.34 | -2.28 ± 0.47 | -2.78 ± 0.035 | -3.35 ± 0.087 | -3.59 ± 0.29 | -4.19 ± 0.26 | -3.84 ± 0.12 | – |
